Results as given in patent US12239654B2, “Compounds and methods for treating neurological and cardiovascular conditions” (Astrocyte Pharmaceuticals, Inc., priority 2016, dated 2025).

Legend:
[1] = Brain binding determination by brain homogenate ultrafiltration, mouse; format: in vitro ADME; details: 37° C., ultrafiltration; for fraction unbound at 60 min, 1 μM: male, CD-1, mouse, brain homogenate, pH 7.4, mouse brain homogenate
Description: (§1) Animals and Tissue Preparation: Plasma from male CD-1 mice was obtained from BioreclamationIVT (Westbury, NY) and stored at −80° C. until use. Male CD-1 mouse brains were obtained from BioreclamationIVT (Westbury, NY).
Brains were weighed and homogenized with 1:9 phosphate-buffered saline, pH 7.4 using an Omni tissue homogenizer. Brains from four mice were homogenized, pooled and mixed to form one sample.
Pooled homogenized brains were pre-warmed for 60 minutes in a humidified, 5% CO2 incubator maintained at 37° C. […] Spiked pooled brain homogenates were placed on a Nutator mixer in a humidified, 5% CO2 incubator at 37° C. for 60 minutes. After 60 minutes, three 800 μL aliquots of each sample were added to Centrifree centrifugal filters. The filters were subjected to centrifugation at 2900 rpm for 10 minutes at 37° C. Aliquots of residual brain homogenate and ultrafiltrate were collected for bioanalysis.
(§2) Plasma and brain concentrations of MRS4322 and MRS5698 in spiked plasma, brain homogenates and associated ultrafiltrates were determined by LC-MS/MS utilizing tolbutamide as an internal standard. […] The following tables outline the LC and MS/MS conditions employed (Tables 7 and 8).
(§3) For each tissue matrix, standard curves were created and LLOQ/ULOQ concentrations determined. The calibration range for the MRS4322 and MRS5698 plasma concentration standard curves was 400-1200 nM. The calibration range for MRS4322 and MRS5698 plasma ultrafiltrate standard curves was 100-1200 nM. The calibration range for MRS4322 brain homogenate and brain homogenate ultrafiltrate standard curves were 400-1200 nM and 100-1200 nM, respectively. The calibration range for MRS5698 brain homogenate and brain homogenate ultrafiltrate standard curves were 400-1200 nM and 1-500 nM, respectively.

[2] = target: T1, mouse A3 adenosine receptor (Mus musculus, UniProt Q61618); assay: Competition binding versus [^3H]NECA at mouse A3 receptors expressed in CHO cells
T1 construct: expressed in transfected cells; whole cells for cAMP
T1 sequence (Q61618 1-319): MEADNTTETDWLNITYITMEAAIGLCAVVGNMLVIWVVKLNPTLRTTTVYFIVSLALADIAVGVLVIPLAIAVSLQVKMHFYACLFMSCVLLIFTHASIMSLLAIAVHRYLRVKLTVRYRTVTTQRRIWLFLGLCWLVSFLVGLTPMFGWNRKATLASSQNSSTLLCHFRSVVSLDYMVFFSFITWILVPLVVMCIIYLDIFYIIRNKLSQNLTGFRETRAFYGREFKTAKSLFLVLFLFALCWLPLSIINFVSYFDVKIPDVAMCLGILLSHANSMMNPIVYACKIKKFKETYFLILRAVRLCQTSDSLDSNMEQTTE

[3] = Plasma binding determination by plasma ultrafiltration, mouse; format: in vitro ADME; details: for fraction unbound at 60 min, 1 μM: male, CD-1, mouse, plasma
Description: as §1
Plasma ultrafiltrate blank samples were prepared by thawing frozen plasma and then pre-warming plasma in a humidified 5% CO2 chamber at 37° C. for 60 minutes. Aliquots of 800 μL were transferred to Centrifree Centrifugal Filters (Ultracel regenerated cellulose (NMWL 30,000 amu) Lot R5JA31736) and centrifuged at 2900 RPM at 37° C. for 10 minutes; plasma water filtrates were collected and used in preparation of standards, blanks and QC standards.
Plasma samples were pre-warmed for 60 minutes in a humidified, 5% CO2 incubator maintained at 37° C. […] Spiked plasma samples were incubated on a rotary mixer in a humidified 5% CO2 chamber at 37° C. for a minimum of 60 minutes. After 60 minutes, three 800 μL aliquots of each sample were added to Centrifree centrifugal filters. The filters were subjected to centrifugation at 2900 rpm for 10 minutes at 37° C. Three 100 μL aliquots of residual plasma were collected along with ultrafiltrate for bioanalysis.
as §2, §3

[4] = Stability of MRS2365 incubated in phosphate-buffered saline; format: physicochemical
[5] = Pharmacokinetics of MRS4322 following intraperitoneal administration of MRS2365 to mice; format: in vivo; details: for Plasma Concentration Mean / Plasma Concentration by Subject / Brain Concentration Mean / Brain Concentration by Subject: analyte MRS4322, mice, MRS2365 0.24 mg/kg ip; for Plasma Concentration by Subject / Brain Concentration by Subject: subjects A-C
Description: Animals: Female C576BL/6J mice weighing approximately 0.02 Kg were used for this study, supplied by the University of Texas Health Sciences Center (San Antonio, TX). All studies were conducted under approved University of Texas Health Sciences Center IACUC protocols.
Drug Administration: MRS2365 was solubilized in phosphate-buffered saline and then diluted in phosphate-buffered saline to prepare dosing solution. Final dosing solution concentration of MRS2365 was 100 μM. A 100 μL volume of dosing solution was administered intraperitoneally to each mouse per 20 gram body weight; MRS2365 was administered intraperitoneally at 0.5 μmol/kg or 0.24 mg/kg. Three mice were administered MRS2365 for each sampling timepoint.
Tissue Sampling: Blood and brain samples were obtained at 0, 0.083, 0.25, 0.5, 1, 2 and 8 hours post-dose. At each timepoint, mice (3/timepoint) were euthanized in a […] chamber. Whole blood was obtained by cardiac puncture into Microtainer tubes containing heparin and immediately centrifuged for preparation of plasma; plasma was stored at −80° C. At each timepoint, whole brain samples were obtained by decapitation, rinsed in ice-cold phosphate-buffered saline and weighed. Brain samples were then immediately flash-frozen in liquid nitrogen and stored at −80° C.
The following table outlines the LC and MS/MS conditions employed:
The calibration range for the MRS4322 plasma concentration standard curve was 2.26-241 ng/mL. The calibration range for MRS4322 brain concentrations was 2.35-242 ng/mL.
For bioanalysis of brain concentrations of MRS4322, brain samples were homogenized in ice-cold phosphate-buffered saline in a 4× dilution. Aliquots of the resulting diluted brain homogenate were treated with acetonitrile and analyzed by LC-MS/MS. Because of the 4× homogenate dilution, the calibration range of the MRS4322 brain standard curve was translated to 9.40-968 ng/gm. In several samples, MRS4322 were detectable but fell below the brain LLOQ of 9.40 ng/gm but were above background; in these cases the final reported brain concentration was extrapolated based on MS peak heights.

[6] = Brain binding determination by brain homogenate ultrafiltration, neonatal pig; format: in vitro ADME; details: female, pH 7.4, 37° C., read-out: % Bound Mean (converted)
Description: Animals and Tissue Preparation. Plasma and brain samples from female neonatal pigs were obtained from the University of Pennsylvania and stored at −80° C. until use.
Pooled homogenized brains were pre-warmed for 60 minutes in a humidified, 5% CO2 incubator maintained at 37° C. […] Spiked pooled brain homogenates were placed on a Nutator mixer in a humidified, 5% CO2 incubator at 37° C. for 60 minutes. After 60 minutes, three 800 ul aliquots of each sample were added to Centrifree centrifugal filters. The filters were subjected to centrifugation at 2900 rpm for 10 minutes at 37 C. Aliquots of residual brain homogenate and ultrafiltrate were collected for bioanalysis.

[7] = read-out: Fraction Unbound Mean
[8] = mouse plasma, 1 μM, 37° C., ultrafiltration, read-out: Fraction Unbound Mean

Structure (SMILES): CNC(=O)[C@H]1O[C@@H](n2cnc3c(NCc4cccc(I)c4)nc(Cl)nc32)[C@H](O)[C@@H]1O [Cl-IB-MECA, 2-Chloro-N^6-(3-iodobenzyl)-adenosine-5′-N-methyluronamide, reference compound]
- fraction unbound at 60 min, 1 μM [1, 7]: 0.002
- difference in affinity of Cl-IB-MECA and MRS4322 at mouse A3 receptor ([2]; Cl-IB-MECA vs MRS4322): approximately 25,000 fold
- fraction unbound at 60 min, 1 μM [3, 8]: 0.002

Structure (SMILES): CSc1nc(N)c2ncn([C@H]3[C@H](O)[C@H](O)[C@]4(COP(=O)(O)OP(=O)(O)O)C[C@H]34)c2n1 [MRS2365]
- stability when incubated in phosphate-buffered saline [4]: completely stable
- metabolism following intraperitoneal administration to mice ([5]; MRS2365 0.5 μmol/kg ip, comparison with equimolar MRS4322): rapidly and completely metabolized to MRS4322

Structure (SMILES): CSc1nc(N)c2ncn([C@H]3[C@H](O)[C@H](O)[C@]4(CO)C[C@H]34)c2n1 [MRS4322]
- fraction unbound at 60 min, 1 uM [6]: 0.253
- fraction unbound at 60 min, 1 μM ([1]; read-out: % Bound Mean (converted)): 0.13
- fraction unbound at 60 min, 1 μM [1, 7]: 0.13
- % Bound Mean ([1]; mouse brain homogenate, 1 μM): 87.0%
- Fraction Unbound Mean ([1]; mouse brain homogenate, 1 μM): 0.130
- Ki ([2]; read-out: Ki ± SEM, Mouse A3R, [^3H]NECA, CHO cell membrane preparations, [^3H]NECA (10 nM)): 4.94 ± 0.974 µM
- fraction unbound at 60 min, 1 μM ([3]; mouse plasma, 1 μM, 37° C., ultrafiltration, read-out: % Bound Mean (converted)): 0.742
- fraction unbound at 60 min, 1 μM [3, 8]: 0.742
- fraction available to interact with the A3 receptor relative to Cl-IB-MECA ([3]; mouse models, from unbound fractions in plasma and brain): at least 1000 fold
- Fraction Unbound Mean ([3]; mouse plasma, 1 μM, 37° C., ultrafiltration): 0.74
- Plasma Concentration Mean ([5]; 0 h): BLQ
- Plasma Concentration by Subject ([5]; 0 h): BLQ
- Brain Concentration Mean ([5]; 0.083 h): BLQ
- Brain Concentration by Subject ([5]; 0.083 h): BLQ
- Brain Concentration Mean ([5]; 1 h): BLQ
- Brain Concentration by Subject ([5]; 1 h): BLQ
- Brain Concentration Mean ([5]; 2 h): BLQ
- Brain Concentration by Subject ([5]; 2 h): BLQ
- Brain Concentration Mean ([5]; 8 h): BLQ
- Plasma Concentration Mean ([5]; 8 h): BLQ
- Brain Concentration by Subject ([5]; 8 h): BLQ
- Plasma Concentration by Subject ([5]; 8 h): BLQ
- Kp ([5]; female, C57BL/6J, mouse, MRS4322 after MRS2365 ip to mice, based on mean Cmax concentrations in plasma and brain, read-out: brain/plasma ratio of total drug): ~0.1
